Details: Liquid

CCCCCCCCCCCCCC[P+](CCCCCC)(CCCCCC)CCCCCC.CS(=O)(=O)[O-] [trihexyltetradecylphosphonium methanesulfonate]
mass density [kg/m3]
Details | 283.15 K | 293.15 K | 303.15 K | 313.15 K | 323.15 K | 333.15 K
100 kPa | 938 | 931.8 | 925.7 | 919.6 | 913.4 | 907.4
1000 kPa | 938.4 | 932.3 | 926.2 | 920.1 | 914 | 908.1
2000 kPa | 938.9 | 932.8 | 926.7 | 920.7 | 914.6 | 908.7
3000 kPa | 939.5 | 933.4 | 927.3 | 921.3 | 915.3 | 909.3
4000 kPa | 940.1 | 933.9 | 927.9 | 921.9 | 915.9 | 910
5000 kPa | 940.5 | 934.4 | 928.4 | 922.5 | 916.6 | 910.6
10000 kPa | 943.1 | 937.1 | 931.3 | 925.3 | 919.5 | 913.7
15000 kPa | 945.6 | 939.7 | 934 | 928.1 | 922.3 | 916.7
20000 kPa | 948 | 942.2 | 936.6 | 930.8 | 925.2 | 919.6
25000 kPa | 950.3 | 944.6 | 939 | 933.5 | 927.9 | 922.3
30000 kPa | 952.7 | 947.1 | 941.5 | 935.9 | 930.5 | 925
35000 kPa | 954.9 | 949.4 | 943.8 | 938.4 | 933.1 | 927.7
40000 kPa | 957.1 | 951.6 | 946.2 | 940.8 | 935.5 | 930.2
45000 kPa | 959.3 | 953.9 | 948.5 | 943.3 | 938.1 | 932.7

From the NIST ThermoML archive (doi:10.1021/je101232g)
